Experimental data: patent publication US7554012B2, “Plants and plant cells exhibiting resistance to AMPA, and methods for making the same” (priority 1998, dated 2009)

Target: T1, purified PhnO protein (Escherichia coli, UniProt P16691, P2A)
T1 construct: made in house; host or cells: E. coli JM101 carrying pMON15032 (recA promoter, nalidixic acid induction)
Experiment: AMPA transacylase acyl-CoA acyl donor specificity, HPLC
Assay type: biochemical, E. coli
Settings: for [^14C]-AMPA % Conversion: 5 minutes 30° C.; for % Activity: 1 mM acetyl-CoA = 100% reference
Procedure: PhnO was purified from a one liter Luria Bertani broth culture of E. coli JM101 expressing a recombinant phnO gene from pMON15032 after nalidixic acid induction for three hours at 37° C. Cells were harvested by centrifugation and resuspended in 40 ml cold Tris buffer (0.1 M Tris-HCl pH 8) and placed on ice. The cell suspension was brought to 1 mM DTT and 0.5 mM PMSF. The suspension was lysed by 2 passages through a prechilled French pressure cell at 1,100 psi, centrifuged at 12,000 g (10,000 rpm in an Sorvall SA600 rotor) for 40 min at 4° C., then placed on ice. The cleared supernatants were poured into fresh 15 ml polypropylene tubes. The samples were split again into two equal portions and maintained at −80° C. until used further for purification of PhnO protein. 20 microliters of the soluble fraction was assayed for enzyme activity using the HPLC method described above in Example 2, except after terminating the assay with acid addition, the sample was stored at −80° C. A Sephacryl S200 column was prepared according to the manufacturers' instructions and equilibrated with a solution containing 20 mM Tris pH 8.0 and 0.5 mM MgCl2. The entire total soluble extract was layered over the top of the column bed after thawing on ice. Forty 9 ml fractions were collected from the column eluate, and thirty microliters of each fraction was analyzed by western blot using anti-PhnO antiserum after resolution on a 15% SDS-PAGE gel. Also, thirty microliters of each fraction was analyzed for AMPA acyl transferase activity using the method described in Example 2. […] These were represented by fractions 7 through 19 in this example, and were combined into a 100 ml volume, distributed into […] each containing 10 ml volumes, and stored at −80° C. for further use.
Anion exchange chromatography was used to determine the elution pattern of PhnO away from other contaminating proteins that co-elute during the Sephacryl S200 fractionation. One tube from the combined PhnO positive fractions was thawed on ice and injected into a 5/5 Mono-Q column pre-equilibrated with buffers A (one liter of 20 mM Tris-HCl pH 8.0 Mili-Q distilled deionized water) and B (one liter of 20 mM Tris-HCl pH 8.0, 1 M NaCl). The sample containing PhnO active protein was injected into the column and one milliliter fractions were collected. The column was washed for five minutes with a flow rate of 1.8 ml per minute Buffer A after loading the PhnO containing sample. At five minutes, Buffer B was added to the flow volume at 0.5 ml per minute for four minutes. Buffer B was ramped up to 22% of the flow volume at 10 minutes, 30% at 12 minutes, 36% at 13 minutes, 41% at 14 minutes, 46% at 15 minutes, 74% at 16 minutes, and 100% at 16 minutes through 22 minutes, at which point Buffer B flow was terminated and Buffer A was reinitiated at 100% to equilibrate the column. Ten microliter volumes from individual fractions collected from the Mono-Q column were analyzed by western blot and for transacylase activity as described in Example 2. […] Samples of this purified PhnO protein were used to determine enzyme's acyl donor substrate specificity.
Enzyme reactions were prepared as follows. […] A assay premix was prepared from which 45 microliters was used in each 100 microliter reaction. This 45 microliter premix sample consisted of 40 microliters distilled and deionized water, 2 microliters of 50 mM MgCl2, and 3 microliters of 1.3 mM [^14C]-AMPA (115,392 dpm per microliter). Reactions were initiated by mixing 40 microliters of 125 mM Tris-HCl pH 8.0, […] protein sample and 10 microliters acyl-CoA acyl donor compound in a microcentrifuge tube at room temperature. Each acyl-CoA acyl donor compound was prepared as a stock solution of 1 mM, 5 mM or 10 mM stocks. Each tube was then mixed with 45 microliters of the assay premix containing the [^14C]-AMPA […] substrate, mixed gently and transferred to a 30° C. water bath for 5 minutes. […]

T1 sequence (P16691 whole entry P2A): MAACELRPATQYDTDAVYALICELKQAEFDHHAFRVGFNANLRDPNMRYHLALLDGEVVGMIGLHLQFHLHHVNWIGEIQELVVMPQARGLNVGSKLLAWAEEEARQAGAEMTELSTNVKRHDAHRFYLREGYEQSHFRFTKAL

SMILES	[^14C]-AMPA % Conversion (acyl donor 0.1 mM) [%]	% Activity (acyl donor 0.1 mM) [%]	[^14C]-AMPA % Conversion (acyl donor 0.5 mM) [%]	% Activity (acyl donor 0.5 mM) [%]	[^14C]-AMPA % Conversion (acyl donor 1 mM) [%]	% Activity (acyl donor 1 mM) [%]
C/C=C/C(=O)SCCNC(=O)CCNC(=O)[C@H](O)C(C)(C)COP(=O)(O)OP(=O)(O)OC[C@H]1O[C@@H](n2cnc3c(N)ncnc32)[C@H](O)[C@@H]1OP(=O)(O)O [Crotonoyl-CoA, crotonoyl-CoA]	0.80	0.80	0.00	0.00	0.00	0.00
CCNC(=O)CCNC(=O)[C@H](O)C(C)(C)COP(=O)(O)OP(=O)(O)OC[C@H]1O[C@@H](n2cnc3c(N)ncnc32)[C@H](O)[C@@H]1OP(=O)(O)O [Desulfo-CoA, desulfo-CoA]	0.95	0.95	1.25	1.25	0.52	0.52
CC(C)(COP(=O)(O)OP(=O)(O)OC[C@H]1O[C@@H](n2cnc3c(N)ncnc32)[C@H](O)[C@@H]1OP(=O)(O)O)[C@@H](O)C(=O)NCCC(=O)NCCSC(=O)CCCC(=O)O [Glutaryl-CoA, glutaryl-CoA]	0.81	0.81	0.00	0.00	0.57	0.57
CC(C)C(=O)SCCNC(=O)CCNC(=O)[C@H](O)C(C)(C)COP(=O)(O)OP(=O)(O)OC[C@H]1O[C@@H](n2cnc3c(N)ncnc32)[C@H](O)[C@@H]1OP(=O)(O)O [Isobutyryl-CoA, isobutyryl-CoA]	2.10	2.10	0.20	0.20	0.00	0.00
CC(C(=O)O)C(=O)SCCNC(=O)CCNC(=O)[C@H](O)C(C)(C)COP(=O)(O)OP(=O)(O)OC[C@H]1O[C@@H](n2cnc3c(N)ncnc32)[C@H](O)[C@@H]1OP(=O)(O)O (stereo partly drawn) [Methylmalonyl-CoA, methylmalonyl CoA]	1.11	1.11	2.08	2.08	2.21	2.21
CCC(=O)SCCNC(=O)CCNC(=O)[C@H](O)C(C)(C)COP(=O)(O)OP(=O)(O)OC[C@H]1O[C@@H](n2cnc3c(N)ncnc32)[C@H](O)[C@@H]1OP(=O)(O)O [Propionyl-CoA, n-propionyl-CoA]	78.2	78.2	97.8	97.8	100.00	100.00
CC(C)(COP(=O)(O)OP(=O)(O)OC[C@H]1O[C@@H](n2cnc3c(N)ncnc32)[C@H](O)[C@@H]1OP(=O)(O)O)[C@@H](O)C(=O)NCCC(=O)NCCSC(=O)CCC(=O)O [Succinyl-CoA, succinyl-CoA]	5.06	5.06	3.38	3.38	1.56	1.56
C/C=C(\C)C(=O)SCCNC(=O)CCNC(=O)[C@H](O)C(C)(C)COP(=O)(O)OP(=O)(O)OC[C@H]1O[C@@H](n2cnc3c(N)ncnc32)[C@H](O)[C@@H]1OP(=O)(O)O [Tiglyl-CoA, tiglyl-CoA]	0.00	0.00	0.00	0.00	0.99	0.99
CCCCC(=O)SCCNC(=O)CCNC(=O)[C@H](O)C(C)(C)COP(=O)(O)OP(=O)(O)OC[C@H]1O[C@@H](n2cnc3c(N)ncnc32)[C@H](O)[C@@H]1OP(=O)(O)O [Valeryl-CoA, n-valeryl-CoA]	0.24	0.24	0.00	0.00	0.33	0.33
